The values that follow come from patent US7511041B2, “Fused azole-pyrimidine derivatives” (Bayer Pharmaceuticals Corporation, priority 2002, dated 2009).

Data set [1] deals with T1, Recombinant human PI3Kγ (full length human PI3K p110γ) (Homo sapiens, UniProt P48736).
T1 construct: full length human PI3K p110γ fused with a His6-tag at the C-terminus; His6 (C); purchased ALEXIS BIOCHEMICALS #201-055-C010; host or cells: S. frugiperda 9 insect cells
The experiment in a line: Kinase assay of PI3Kγ (solid-phase lipid kinase assay). Type of data set: biochemical. As to conditions: in vitro PI3K-γ inhibitory activity, read-out: in vitro PI3K-gamma.

Usually melting point stands for the temperature of the solid-liquid transition.

Where two headings read alike, the source gives them in different places.

T1 sequence (P48736 whole entry, the tested form may be a part): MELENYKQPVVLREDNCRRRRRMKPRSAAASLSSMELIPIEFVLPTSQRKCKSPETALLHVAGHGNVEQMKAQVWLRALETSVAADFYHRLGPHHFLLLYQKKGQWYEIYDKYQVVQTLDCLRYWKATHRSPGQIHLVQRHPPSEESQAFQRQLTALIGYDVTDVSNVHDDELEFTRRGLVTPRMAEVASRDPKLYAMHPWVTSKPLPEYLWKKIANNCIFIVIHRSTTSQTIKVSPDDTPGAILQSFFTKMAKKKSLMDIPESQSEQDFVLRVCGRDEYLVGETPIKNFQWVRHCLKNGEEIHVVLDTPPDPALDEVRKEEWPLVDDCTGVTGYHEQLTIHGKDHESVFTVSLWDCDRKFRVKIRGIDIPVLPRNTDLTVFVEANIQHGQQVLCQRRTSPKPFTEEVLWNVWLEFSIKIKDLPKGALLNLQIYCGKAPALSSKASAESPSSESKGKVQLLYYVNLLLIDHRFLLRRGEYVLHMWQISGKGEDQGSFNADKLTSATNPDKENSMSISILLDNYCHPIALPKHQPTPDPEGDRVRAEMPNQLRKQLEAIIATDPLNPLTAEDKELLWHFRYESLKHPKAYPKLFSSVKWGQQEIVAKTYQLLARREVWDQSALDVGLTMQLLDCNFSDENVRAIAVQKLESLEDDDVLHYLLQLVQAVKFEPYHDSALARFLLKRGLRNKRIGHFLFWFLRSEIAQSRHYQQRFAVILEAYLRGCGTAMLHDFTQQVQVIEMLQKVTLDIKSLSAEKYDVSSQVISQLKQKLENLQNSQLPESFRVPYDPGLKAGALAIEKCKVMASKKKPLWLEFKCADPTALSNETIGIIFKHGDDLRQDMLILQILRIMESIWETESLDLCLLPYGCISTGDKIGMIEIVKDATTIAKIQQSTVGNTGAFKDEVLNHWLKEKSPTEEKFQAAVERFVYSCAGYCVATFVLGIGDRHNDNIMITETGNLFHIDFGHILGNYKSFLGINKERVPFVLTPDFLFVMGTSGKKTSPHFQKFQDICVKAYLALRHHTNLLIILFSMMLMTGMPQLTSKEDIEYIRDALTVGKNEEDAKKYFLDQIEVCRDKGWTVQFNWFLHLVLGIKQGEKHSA

Regarding `O=C(NC1=Nc2ccccc2C2=NCCN12)c1cnc2[nH]cnc2c1` [Example 2-172], the melting point is above 300 °C. In addition, the IC50 in data set [1] (class symbols) is below 100 nM.
For `Cc1nc2ncccc2cc1C(=O)NC1=Nc2ccccc2C2=NCCN12` [Example 2-174] the same measures were 296 °C (dec.) and 100 to 500 nM.
The compound `Cl.O=C(NC1=Nc2ccccc2C2=NCCN12)c1cc2cccnc2nc1C(F)(F)F` [Example 2-176] returned a melting point of 248 to 249 °C. Besides, in data set [1] (class symbols), the IC50 is 100 to 500 nM.
Regarding `O=C(NC1=Nc2ccccc2C2=NCCN12)c1ccc2cccnc2n1` [Example 2-177], the melting point was 275 °C (dec.). In addition, the IC50 in data set [1] (class symbols) was in the range of 100 to 500 nM.
The matching figures for `O=C(NC1=Nc2ccccc2C2=NCCN12)c1cccs1` [Example 2-178]: 187 to 188 °C and 100 to 500 nM.
Consider `Cl.O=C(NC1=Nc2ccccc2C2=NCCN12)c1cccs1` [Example 2-179], for which the melting point was 310 °C (dec.). Besides, the IC50 in data set [1] (class symbols) is below 100 nM.
Compound `O=C(NC1=Nc2ccccc2C2=NCCN12)c1sccc1Cl` [Example 2-180] gave a melting point of 198 to 199 °C. For the same compound, the IC50 in data set [1] (class symbols) lay within 100 to 500 nM.
`Cc1ccsc1C(=O)NC1=Nc2ccccc2C2=NCCN12.Cl` [Example 2-182] came in with a melting point above 250 °C. Also, the IC50 in data set [1] (class symbols) was 100 to 500 nM.
Take `O=C(NC1=Nc2ccccc2C2=NCCN12)c1ccsc1` [Example 2-183]: the melting point was 167 °C (dec.). Also, in data set [1] (class symbols), the IC50 was in the range of 100 to 500 nM.
`O=C(NC1=Nc2ccccc2C2=NCCN12)c1ccoc1` [Example 2-185] gave a melting point of 217 to 218 °C. Moreover, in data set [1] (class symbols), the IC50 is 100 to 500 nM.
For the compound `Cc1nocc1C(=O)NC1=Nc2ccccc2C2=NCCN12.Cl` [Example 2-186], the melting point was 285 °C (dec.). In addition, in data set [1] (class symbols), the IC50 lay within 100 to 500 nM.
For `Cc1noc(C)c1C(=O)NC1=Nc2ccccc2C2=NCCN12.Cl` [Example 2-187] the same measures were 280 to 281 °C and 100 to 500 nM.
For the compound `Cl.O=C(NC1=Nc2ccccc2C2=NCCN12)c1nccs1` [Example 2-188], the melting point is 306 °C (dec.). Moreover, in data set [1] (class symbols), the IC50 is 100 to 500 nM.
The matching figures for `Cc1nc(C)c(C(=O)NC2=Nc3ccccc3C3=NCCN23)s1` [Example 2-189]: 243 °C (dec.) and 100 to 500 nM.
The compound `Cc1nc(C)c(C(=O)NC2=Nc3ccccc3C3=NCCN23)s1.Cl` [Example 2-190] had a melting point of 289 to 290 °C. Also, the IC50 in data set [1] (class symbols) was below 100 nM.
Regarding `CCn1nc(C)cc1C(=O)NC1=Nc2ccccc2C2=NCCN12` [Example 2-191], the melting point is 207 to 208 °C. For the same compound, the IC50 in data set [1] (class symbols) fell in the range of 100 to 500 nM.
The matching figures for `O=C(NC1=Nc2ccccc2C2=NCCN12)c1c[nH]cn1` [Example 2-193]: 265 °C (dec.) and 100 to 500 nM.
Consider `Cl.O=C(NC1=Nc2cc(O)ccc2C2=NCCN12)c1cccnc1` [Example 2-195], for which the melting point was 270 to 274 °C (dec.). In addition, in data set [1] (class symbols), the IC50 was 100 to 500 nM.
As to `Cl.O=C(NC1=Nc2cc(OCCn3cccc3)ccc2C2=NCCN12)c1cccnc1` [Example 2-196], the melting point stood at 239 °C. Moreover, the IC50 in data set [1] (class symbols) was 100 to 500 nM.
Regarding `O=C(NC1=Nc2cc(OCCO)ccc2C2=NCCN12)c1cccnc1` [Example 2-197], the melting point is 210 to 215 °C (dec.). Further, the IC50 in data set [1] (class symbols) lay in the range of 100 to 500 nM.
`O=C(NC1=Nc2cc(OCCCO)ccc2C2=NCCN12)c1cccnc1` [Example 2-199] returned a melting point of 127 °C. In addition, in data set [1] (class symbols), the IC50 is below 100 nM.
As to `Cl.O=C(NC1=Nc2cc(OCCCO)ccc2C2=NCCN12)c1cccnc1` [Example 2-200], the melting point was 243 °C (dec.). In data set [1] (class symbols), the IC50 fell in the range of 100 to 500 nM.
The matching figures for `O=C(NC1=Nc2cc(OCCOCCO)ccc2C2=NCCN12)c1cccnc1` [Example 2-201]: 181 °C and 100 to 500 nM.
For the compound `Cl.O=C(O)COc1ccc2c(c1)N=C(NC(=O)c1cccnc1)N1CCN=C21` [Example 2-203], the melting point is 231 °C (dec.). Besides, in data set [1] (class symbols), the IC50 lay in the range of 100 to 500 nM.
Take `Cl.O=C1NCC(COc2ccc3c(c2)N=C(NC(=O)c2cccnc2)N2CCN=C32)O1` (centres unmarked) [Example 2-204]: the melting point is 265 to 269 °C (dec.). Besides, the IC50 in data set [1] (class symbols A-D) lay in the range of 100 to 500 nM.
Consider `Cl.O=C(NC1=Nc2cc(OCCN3CCOCC3)ccc2C2=NCCN12)c1cccnc1` [Example 2-205], for which the melting point was 243 to 247 °C (dec.). Also, the IC50 in data set [1] (class symbols A-D) was 100 to 500 nM.
For `NC(=O)COc1ccc2c(c1)N=C(NC(=O)c1cccnc1)N1CCN=C21` [Example 2-206] the same measures were 296 °C and 100 to 500 nM.
With `O=C(NC1=Nc2cc(OCC(=O)N3CCOCC3)ccc2C2=NCCN12)c1cccnc1` [Example 2-207], the melting point is 232 to 236 °C (dec.). Further, the IC50 in data set [1] (class symbols A-D) lay in the range of 100 to 500 nM.
`Cl.O=C(NC1=Nc2cc(OCCCN3C(=O)c4ccccc4C3=O)ccc2C2=NCCN12)c1cccnc1` [Example 2-209] displayed a melting point of 247 °C. The IC50 in data set [1] (class symbols A-D) is below 100 nM.
As to `O=C(NC1=Nc2ccc(O)cc2C2=NCCN12)c1cccnc1` [Example 2-210], the melting point was above 300 °C. Also, the IC50 in data set [1] (class symbols A-D) lay within 100 to 500 nM.
In turn, `Cl.O=C(NC1=Nc2ccc(O)cc2C2=NCCN12)c1cccnc1` [Example 2-211] yielded a melting point above 300 °C. Moreover, the IC50 in data set [1] (class symbols A-D) is below 100 nM.
Consider `O=C(NC1=Nc2ccc(O)cc2C2=NCCN12)c1ccc2[nH]cnc2c1` [Example 2-212], for which the melting point was 296 °C (dec.). Further, in data set [1] (class symbols A-D), the IC50 was in the range of 100 to 500 nM.
The matching figures for `N#CCOc1ccc2c(c1)C1=NCCN1C(NC(=O)c1cccnc1)=N2` [Example 2-213]: 209 °C and 100 to 500 nM.
For the compound `O=C(NC1=Nc2ccccc2C2=NCCN12)c1ccccc1` [Example 2-214], the melting point is 201 to 203 °C (dec.). In addition, the IC50 in data set [1] (class symbols A-D) was in the range of 500 to 2000 nM.
Regarding `O=C(NC1=Nc2ccccc2C2=NCCN12)c1ccccc1.O=C(O)C(F)(F)F` [Example 2-215], the melting point was in the range of 238 to 242 °C. Besides, the IC50 in data set [1] (class symbols A-D) was in the range of 100 to 500 nM.
As for `Cc1cccc(C(=O)NC2=Nc3ccccc3C3=NCCN23)c1` [Example 2-216], the melting point was 201 to 203 °C. In data set [1] (class symbols A-D), the IC50 was above 2000 nM.
As to `Cc1cccc(C(=O)NC2=Nc3ccccc3C3=NCCN23)c1.O=C(O)C(F)(F)F` [Example 2-217], the melting point is 239 to 241 °C. Also, the IC50 in data set [1] (class symbols A-D) lay in the range of 100 to 500 nM.
Compound `Cc1ccc(C(=O)NC2=Nc3ccccc3C3=NCCN23)cc1` [Example 2-218] came in with a melting point of 185 to 186 °C. In addition, the IC50 in data set [1] (class symbols A-D) was above 2000 nM.
As for `Cc1cc(C)cc(C(=O)NC2=Nc3ccccc3C3=NCCN23)c1` [Example 2-219], the melting point is 246 to 248 °C. Besides, the IC50 in data set [1] (class symbols A-D) is above 2000 nM.
The matching figures for `COc1c(C)cc(C(=O)NC2=Nc3ccccc3C3=NCCN23)cc1C` [Example 2-220]: 216 to 218 °C and above 2000 nM.
As for `Cc1cc(C(=O)NC2=Nc3ccccc3C3=NCCN23)cc(C)c1[N+](=O)[O-]` [Example 2-222], the melting point was 277 °C (dec.). Also, in data set [1] (class symbols A-D), the IC50 was above 2000 nM.
`O=C(NC1=Nc2ccccc2C2=NCCN12)c1ccccc1F` [Example 2-224]: the melting point lay within 202 to 204 °C. Moreover, in data set [1] (class symbols A-D), the IC50 is 500 to 2000 nM.
As to `O=C(NC1=Nc2ccccc2C2=NCCN12)c1ccc(F)cc1` [Example 2-225], the melting point lay in the range of 210 to 212 °C. Further, the IC50 in data set [1] (class symbols A-D) is above 2000 nM.
`O=C(NC1=Nc2ccccc2C2=NCCN12)c1ccccc1Cl.O=C(O)C(F)(F)F` [Example 2-226] returned a melting point of 221 to 224 °C. In addition, the IC50 in data set [1] (class symbols A-D) is above 2000 nM.
Compound `O=C(NC1=Nc2ccccc2C2=NCCN12)c1cccc(Cl)c1` [Example 2-227] showed a melting point of 196 to 197 °C. The IC50 in data set [1] (class symbols A-D) is above 2000 nM.
In turn, `O=C(NC1=Nc2ccccc2C2=NCCN12)c1cccc(Cl)c1.O=C(O)C(F)(F)F` [Example 2-228] gave a melting point of 233 to 235 °C. Also, the IC50 in data set [1] (class symbols A-D) is 500 to 2000 nM.
As for `O=C(NC1=Nc2ccccc2C2=NCCN12)c1ccc(Cl)cc1` [Example 2-229], the melting point is 226 to 228 °C. The IC50 in data set [1] (class symbols A-D) is above 2000 nM.
In the case of `O=C(NC1=Nc2ccccc2C2=NCCN12)c1cc(Cl)cc(Cl)c1` [Example 2-231], the melting point fell in the range of 268 to 269 °C. Further, in data set [1] (class symbols A-D), the IC50 was above 2000 nM.
Regarding `COc1ccccc1C(=O)NC1=Nc2ccccc2C2=NCCN12` [Example 2-232], the melting point lay within 185 to 187 °C. Also, the IC50 in data set [1] (class symbols A-D) was above 2000 nM.
Compound `COc1cccc(C(=O)NC2=Nc3ccccc3C3=NCCN23)c1` [Example 2-233] displayed a melting point of 202 to 204 °C. Also, in data set [1] (class symbols A-D), the IC50 was above 2000 nM.
The compound `COc1cccc(C(=O)NC2=Nc3ccccc3C3=NCCN23)c1.O=C(O)C(F)(F)F` [Example 2-234] registered a melting point of 209 to 211 °C. The IC50 in data set [1] (class symbols A-D) fell in the range of 500 to 2000 nM.
Take `COc1ccc(C(=O)NC2=Nc3ccccc3C3=NCCN23)cc1` [Example 2-235]: the melting point was 300 °C (dec.). Also, the IC50 in data set [1] (class symbols A-D) was above 2000 nM.
As for `CC(C)(C)Oc1ccc(C(=O)NC2=Nc3ccccc3C3=NCCN23)cc1` [Example 2-236], the melting point was above 410 °C. In addition, the IC50 in data set [1] (class symbols A-D) is above 2000 nM.
As for `COc1ccc(C(=O)NC2=Nc3ccccc3C3=NCCN23)c(OC)c1.Cl` [Example 2-237], the melting point is 259 °C (dec.). In data set [1] (class symbols A-D), the IC50 is above 2000 nM.
In the case of `COc1ccc(C(=O)NC2=Nc3ccccc3C3=NCCN23)cc1OC.Cl` [Example 2-238], the melting point is 274 °C (dec.). Moreover, in data set [1] (class symbols A-D), the IC50 was 100 to 500 nM.
